Data on two compounds can be found in patent publication EP2730577A1, “CRYSTAL MODIFICATION OF A PARA-METHOXYANILIDE OF 6-HYDROXY-4-OXO-2,4,DIHYDRO-1H-PYRROLO[3,2,1-IJ]-QUINOLINE-5-CARBOXYLIC ACID” (Otkrytoe Aktsionernoe Obschestvo Mezhdunarodnaya, priority 2012, dated 2013).

The subject of test [1] is white rats. The following applies: diuretic effect, oral; stated for the known α-form without data of its own; cited from earlier work.
The test system of test [2] is white rats. The experiment in a line: Diuretic effect (urinary excretion) in rats after oral administration. The class given is in vivo. The following applies: for Diuresis after 5 hr.: 10 mg/kg orally as a fine suspension in water stabilized with Tween-80, after water load, urine excreted over 5 hrs, control 4.3 ± 0.20 ml, 10 mg/kg; for Diuretic effect: 5 hr, relative to control = 100, 10 mg/kg. Here is the method:
Example 6. Diuretic effect of the novel crystal modification (β-form) of 6-hydroxy-4-oxo-2,4-dihydro-1H-pyrrolo[3,2,1-ij]-quinoline-5-carboxylic acid para-metoxyanilide compared to the effect of the known crystal modification (α-form) of the same compound was studied on white rats weighing 180 - 200 g
(12 animals per each compound) using a standard technique. All tested animals received water via a gastric tube at 5 ml per […] of body weight. The control group received the same amount of water with Tween 80. The tested substances were administered orally at 10 mg/kg (median effective dose of the known α-form) as a fine suspension in water stabilized with Tween-80. After that, the tested animals were placed into "exchange cages". The urinary excretion intensity was determined by the amount of urine excreted by the animals over a period of 5 hrs. The experimental data shown in Table 9 leads to a conclusion that the diuretic action of the novel crystal modification (β-form) of 6-hydroxy-4-oxo-2,4-dihydro-1H-pyrrolo[3,2,1-ij]-quinoline-5-carboxylic acid para-metoxyanilide exceeds that of the known α-form by an average of 19%.

With `COc1ccc(NC(=O)c2c(O)c3cccc4c3n(c2=O)CC4)cc1` [Known α-form, 6-hydroxy-4-oxo-2,4-dihydro-1H-pyrrolo[3,2,1-ij]-quinoline-5-carboxylic acid para-metoxyanilide], the median effective dose in the test on white rats [1] was 10 mg/kg. The “Diuresis after 5 hr.” value with white rats [2] came out at 9.7 ± 0.28 mL. The Diuretic effect with white rats [2] (10 mg/kg orally) is recorded as 226%.

As to `COc1ccc(NC(=O)c2c(O)c3cccc4c3n(c2=O)CC4)cc1` [Novel β-form, 6-hydroxy-4-oxo-2,4-dihydro-1H-pyrrolo[3,2,1-ij]-quinoline-5-carboxylic acid para-metoxyanilide], the “Diuresis after 5 hr.” value in the test with white rats [2] is 10.5 ± 0.27 mL. Further, the Diuretic effect with white rats [2] (10 mg/kg orally) is recorded as 245%. Besides, the “diuretic action exceeds that of the known α-form” value in the test on white rats [2] (10 mg/kg orally, 5 hrs, β-form versus α-form, average) is 19%.
